Measured values: patent US9340513B2, “Propenoate derivatives of betulin” (GlaxoSmithKline LLC, priority 2011, dated 2016)

These compounds were tested on HIV-1 (strain IIIB) (assay: MT4 Cell Antiviral Assay). Conditions: Human immunodeficiency virus 1, 120 h; HIV-1 strain IIIB in MT4 cells, 5 days, Cell Titer-Glo; 50% decrease in HIV-induced cytopathic effect.
Assay type: cell-based
Experimental: Antiviral HIV activity and compound-induced cytotoxicity were measured in parallel based on a modified protocol of the propidium iodide based procedure in the human T-cell lymphotropic virus transformed cell line MT4. Aliquots of the test compounds were serially diluted in DMSO plated in 96-well plates. Exponentially growing MT4 cells were harvested and pelleted. Cell pellets were resuspended in fresh medium (RPMI 1640, 10% FCS, and gentamycin. Cell aliquots were infected by the addition of HIV-1 (strain IIIB) diluted to give a viral multiplicity of infection of 300×TCID50/million cells. A similar cell aliquot was diluted with medium to provide a mock-infected control. Cell infection was allowed to proceed for 1 hr at 37° C. in a tissue culture incubator with humidified 5% CO2 atmosphere. After the 1 hr incubation the virus/cell suspensions were diluted with fresh medium, and added to each well of the plate containing pre-diluted compound. Plates were then placed in a tissue culture incubator with humidified 5% CO2 for 5 days. […] The plates were analyzed in an automated plate reader for luminescence.assay. The control and standard used was efavirinz tested over a concentration range of 0.001 to 1 μM in every assay. The expected range of IC50 values for efavirinz is 0.1 to 1 nM.
The antiviral effect of a test compound is reported as an IC50, i.e. the inhibitory concentration that would produce a 50% decrease in the HIV-induced cytopathic effect. This effect is measured by the amount of test compound required to restore 50% of the cell growth of HIV-infected MT4 cells, compared to uninfected MT4 cell controls. IC50 was calculated by RoboSage, Automated Curve Fitting Program.
For each assay plate, the results (of wells containing uninfected cells or infected cells with no compound were averaged, respectively. For measurements of compound-induced cytotoxicty, results from wells containing various compound concentrations and uninfected cells were compared to the average of uninfected cells without compound treatment. Percent of cells remaining is determined by the following formula: Percent of cells remaining=(compound-treated uninfected cells/untreated uninfected cells)×100.
A level of percent of cells remaining of 79% or less indicates a significant level of direct compound-induced cytotoxicity for the compound at that concentration. When this condition occurs the results from the compound-treated infected wells at this concentration are not included in the calculation of IC50.
For measurements of compound antiviral activity, results from wells containing various compound concentrations and infected cells are compared to the average of uninfected and infected cells without compound treatment. Percent inhibition of virus is determined by the following formula: Percent inhibition of virus=(1−((ave. untreated uninfected cells−treated infected cells)/(ave. untreated uninfected cells−ave. untreated infected cells)))×100
With CC(C)C1=C2[C@H]3CC[C@@H]4[C@@]5(C)CC[C@H](OC(=O)CC(C)(C)C(=O)O)C(C)(C)[C@@H]5CC[C@@]4(C)[C@]3(C)CC[C@@]2(/C=C/C(=O)N[C@H](C)c2ccccc2Cl)CC1=O [Example 22, 4-(((3aS,5aR,5bR,7aR,9S,11aR,11bR,13aS)-3a-((E)-3-(((R)-1-(2-Chlorophenyl)ethyl)amino)-3-oxoprop-1-en-1-yl)-1-isopropyl-5a,5b,8,8,11a-pentamethyl-2-oxo-3,3a,4,5,5a,5b,6,7,7a,8,9,10,11,11a,11b,12,13,13a-octadecahydro-2H-cyclopenta[a]chrysen-9-yl)oxy)-2,2-dimethyl-4-oxobutanoic acid] the IC50 was 10 to 250 nM. In the case of CC(C)C1=C2[C@H]3CC[C@@H]4[C@@]5(C)CC[C@H](OC(=O)CC(C)(C)C(=O)O)C(C)(C)[C@@H]5CC[C@@]4(C)[C@]3(C)CC[C@@]2(/C=C/C(=O)NCC2CCCCC2)CC1=O [Example 33, 4-(((3aS,5aR,5bR,7aR,9S,11aR,11bR,13aS)-3a-((E)-3-((Cyclohexylmethyl)amino)-3-oxoprop-1-en-1-yl)-1-isopropyl-5a,5b,8,8,11a-pentamethyl-2-oxo-3,3a,4,5,5a,5b,6,7,7a,8,9,10,11,11a,11b,12,13,13a-octadecahydro-2H-cyclopenta[a]chrysen-9-yl)oxy)-2,2-dimethyl-4-oxobutanoic acid], the IC50 is reported as < 10 nM. CC(C)C1=C2[C@H]3CC[C@@H]4[C@@]5(C)CC[C@H](OC(=O)CC(C)(C)C(=O)O)C(C)(C)[C@@H]5CC[C@@]4(C)[C@]3(C)CC[C@@]2(/C=C/C(=O)NC2(c3ccccn3)CC2)CC1=O [Example 12, 4-(((3aS,5aR,5bR,7aR,9S,11aR,11bR,13aS)-1-Isopropyl-5a,5b,8,8,11a-pentamethyl-2-oxo-3a-((E)-3-oxo-3-((1-(pyridin-2-yl)cyclopropyl)amino)prop-1-en-1-yl)-3,3a,4,5,5a,5b,6,7,7a,8,9,10,11,11a,11b,12,13,13a-octadecahydro-2H-cyclopenta[a]chrysen-9-yl)oxy)-2,2-dimethyl-4-oxobutanoic acid] was tested, and the IC50 was < 10 nM. Work on CC(C)C1=C2[C@H]3CC[C@@H]4[C@@]5(C)CC[C@H](OC(=O)CC(C)(C)C(=O)O)C(C)(C)[C@@H]5CC[C@@]4(C)[C@]3(C)CC[C@@]2(/C=C/C(=O)Nc2ccccn2)CC1=O [Example 19] yielded an IC50 of 10 to 250 nM. With CC(C)C1=C2[C@H]3CC[C@@H]4[C@@]5(C)CC[C@H](OC(=O)CC(C)(C)C(=O)O)C(C)(C)[C@@H]5CC[C@@]4(C)[C@]3(C)CC[C@@]2(/C=C/C(=O)N[C@@H](C)c2ncccn2)CC1=O [Example 11, 4-(((3aS,5aR,5bR,7aR,9S,11aR,11bR,13aS)-1-isopropyl-5a,5b,8,8,11a-pentamethyl-2-oxo-3a-((E)-3-oxo-3-(((S)-1-(pyrimidin-2-yl)ethyl)amino)prop-1-en-1-yl)-3,3a,4,5,5a,5b,6,7,7a,8,9,10,11,11a,11b,12,13,13a-octadecahydro-2H-cyclopenta[a]chrysen-9-yl)oxy)-2,2-dimethyl-4-oxobutanoic acid] the IC50 was 10 to 250 nM. With CC(C)C1=C2[C@H]3CC[C@@H]4[C@@]5(C)CC[C@H](OC(=O)CC(C)(C)C(=O)O)C(C)(C)[C@@H]5CC[C@@]4(C)[C@]3(C)CC[C@@]2(/C=C/C(=O)NC2(c3ccc(Cl)cn3)CC2)CC1=O [Example 7, 4-(((3aS,5aR,5bR,7aR,9S,11aR,11bR,13aS)-3a-((E)-3-((1-(5-Chloropyridin-2-yl)cyclopropyl)amino)-3-oxoprop-1-en-1-yl)-1-isopropyl-5a,5b,8,8,11a-pentamethyl-2-oxo-3,3a,4,5,5a,5b,6,7,7a,8,9,10,11,11a,11b,12,13,13a-octadecahydro-2H-cyclopenta[a]chrysen-9-yl)oxy)-2,2-dimethyl-4-oxobutanoic acid] the IC50 was < 10 nM. With CC(C)C1=C2[C@H]3CC[C@@H]4[C@@]5(C)CC[C@H](OC(=O)CC(C)(C)C(=O)O)C(C)(C)[C@@H]5CC[C@@]4(C)[C@]3(C)CC[C@@]2(/C=C/C(=O)NC2(c3ncc(Cl)cn3)CC2)CC1=O [Example 26, 4-(((3aS,5aR,5bR,7aR,9S,11aR,11bR,13aS)-3a-((E)-3-((1-(5-Chloropyrimidin-2-yl)cyclopropyl)amino)-3-oxoprop-1-en-1-yl)-1-isopropyl-5a,5b,8,8,11a-pentamethyl-2-oxo-3,3a,4,5,5a,5b,6,7,7a,8,9,10,11,11a,11b,12,13,13a-octadecahydro-2H-cyclopenta[a]chrysen-9-yl)oxy)-2,2-dimethyl-4-oxobutanoic acid] the IC50 was < 10 nM. Compound CC(C)C1=C2[C@H]3CC[C@@H]4[C@@]5(C)CC[C@H](OC(=O)CC(C)(C)C(=O)O)C(C)(C)[C@@H]5CC[C@@]4(C)[C@]3(C)CC[C@@]2(/C=C/C(=O)N[C@@H](C)c2ccccn2)CC1=O [Example 15, 4-(((3aS,5aR,5bR,7aR,9S,11aR,11bR,13aS)-1-Isopropyl-5a,5b,8,8,11a-pentamethyl-2-oxo-3a-((E)-3-oxo-3-(((S)-1-(pyridin-2-yl)ethyl)amino)prop-1-en-1-yl)-3,3a,4,5,5a,5b,6,7,7a,8,9,10,11,11a,11b,12,13,13a-octadecahydro-2H-cyclopenta[a]chrysen-9-yl)oxy)-2,2-dimethyl-4-oxobutanoic acid] has an IC50 of 10 to 250 nM. CC(C)C1=C2[C@H]3CC[C@@H]4[C@@]5(C)CC[C@H](OC(=O)CC(C)(C)C(=O)O)C(C)(C)[C@@H]5CC[C@@]4(C)[C@]3(C)CC[C@@]2(/C=C/C(=O)N[C@@H](C)c2ccncn2)CC1=O [Example 8, 4-(((3aS,5aR,5bR,7aR,9S,11aR,11bR,13aS)-1-Isopropyl-5a,5b,8,8,11a-pentamethyl-2-oxo-3a-((E)-3-oxo-3-(((S)-1-(pyrimidin-4-yl)ethyl)amino)prop-1-en-1-yl)-3,3a,4,5,5a,5b,6,7,7a,8,9,10,11,11a,11b,12,13,13a-octadecahydro-2H-cyclopenta[a]chrysen-9-yl)oxy)-2,2-dimethyl-4-oxobutanoic acid] showed an IC50 of 10 to 250 nM. CC(C)C1=C2[C@H]3CC[C@@H]4[C@@]5(C)CC[C@H](OC(=O)CC(C)(C)C(=O)O)C(C)(C)[C@@H]5CC[C@@]4(C)[C@]3(C)CC[C@@]2(/C=C/C(=O)N[C@H](C)c2ccc(Cl)cc2)CC1=O [Example 4, 4-(((3aS,5aR,5bR,7aR,9S,11aR,11bR,13aS)-3a-((E)-3-(((R)-1-(4-Chlorophenyl)ethyl)amino)-3-oxoprop-1-en-1-yl)-1-isopropyl-5a,5b,8,8,11a-pentamethyl-2-oxo-3,3a,4,5,5a,5b,6,7,7a,8,9,10,11,11a,11b,12,13,13a-octadecahydro-2H-cyclopenta[a]chrysen-9-yl)oxy)-2,2-dimethyl-4-oxobutanoic acid] gave an IC50 of 10 to 250 nM. CC(C)C1=C2[C@H]3CC[C@@H]4[C@@]5(C)CC[C@H](OC(=O)CC(C)(C)C(=O)O)C(C)(C)[C@@H]5CC[C@@]4(C)[C@]3(C)CC[C@@]2(/C=C/C(=O)NC2CCCCC2)CC1=O [Example 30, 4-(((3aS,5aR,5bR,7aR,9S,11aR,11bR,13aS)-3a-((E)-3-(Cyclohexylamino)-3-oxoprop-1-en-1-yl)-1-isopropyl-5a,5b,8,8,11a-pentamethyl-2-oxo-3,3a,4,5,5a,5b,6,7,7a,8,9,10,11,11a,11b,12,13,13a-octadecahydro-2H-cyclopenta[a]chrysen-9-yl)oxy)-2,2-dimethyl-4-oxobutanoic acid] gave an IC50 of 10 to 250 nM.
